Reference: PMC5477094, “Antiresorptive effect of a cathepsin K inhibitor ONO-5334 and its relationship to BMD increase in a phase II trial for postmenopausal osteoporosis” (BMC Musculoskeletal Disorders, 2017)
Read-outs that look alike come from different tables or passages of the source.

Columns and labels:
[1] = tested on: serum C-telopeptide of type I collagen (sCTX); design: method as in PMID 26188109; conditions: PKPD study, SR tablets, cited from earlier work
[2] = design: method as in earlier work; conditions: at morning on 12 month in the OCEAN study, full analysis set, cited from earlier work
[3] = tested on: postmenopausal women with osteoporosis or osteopenia; design: method as in PMID 21312264, PMID 23873670; conditions: OCEAN study, cited from earlier work
[4] = tested on: postmenopausal women with osteoporosis or osteopenia; design: method as in PMID 21312264, PMID 23873670; conditions: 300 mg QD, OCEAN study; cited from earlier work
[5] = at 12 h after administration in MAD study, cited from earlier work
[6] = Solubility of ONO-5334; type: physicochemical; conditions: at acidic pH
[7] = tested on: postmenopausal women with osteoporosis or osteopenia; experiment: BMD increase (DXA) in the OCEAN study and linear regression against mean sCTX inhibition over 24 h; type: in vivo, human; conditions: at 1 year
Protocol: PK data at 50 mg BID, 100 mg QD and 300 mg QD were used from the 15-day multiple-dosing cohort in a phase 1 study of ONO-5334 IR tablets (MAD study, n = 96). The MAD study was a randomized, double-blind, single-center study conducted at the Kendle Clinical Pharmacology Unit, Utrecht, The Netherlands, from April to November 2006 (EudraCT: not applicable). The sigmoidal relationship (Emax model) between plasma ONO-5334 concentrations and sCTX inhibition was taken from a study using SR tablets of ONO-5334 (PKPD study, n = 10). The PKPD study was a phase 1, 2-part (4- and 2-way crossover), open-label, randomized trial conducted at Pharmaceutical Profiles, Ruddington, Nottingham, United Kingdom, from January 2008 to April 2008 (European Union Clinical Trials Register [EudraCT]: 2007–005206-47). Data for sCTX inhibition and increase in BMD after 1 year of treatment were taken from the OCEAN study (n = 285). […]
The relationship of sCTX inhibition for 24 h and the mean increase in BMD for the lumbar spine (L1-L4) and total hip after 1 year of treatment in the OCEAN study were analyzed. BMD in the OCEAN study was measured using dual-energy X-ray absorptiometry (DXA) (Prodigy, GE Lunar, Madison, WI, USA). […]

[8] = tested on: serum C-telopeptide of type I collagen (sCTX); experiment: Simulation of sCTX inhibition from plasma ONO-5334 concentrations with sigmoidal Emax model; design: species or system human
Text: PK data from the MAD study and the relationship between plasma ONO-5334 levels and sCTX inhibition in healthy postmenopausal women obtained from the PKPD study were used in simulation of the antiresorptive effect of ONO-5334 [29, 31]. Our previous PK data for 14 days after repeated administration were also used in the simulation. sCTX inhibition for doses and regimens in the OCEAN study were simulated using plasma ONO-5334 levels and the sigmoidal Emax model in the PKPD study (Fig. 1). The sigmoidal Emax model was fitted to data using log-transformed ONO-5334 plasma concentrations and effects on sCTX inhibition, using the following equation [32]. Effect=E0+Emax×C^r/EC50r+C^r

[9] = cited from earlier work

Compound: C[C@@H]1CS/C(=N\NC(=O)C(=O)[C@@H](NC(=O)C2CCCCCC2)C2CCOCC2)N1C [ONO-5334]
- effect span (Emax) of sigmoidal Emax model for sCTX [1]: −54.0%
- half-maximal effective concentration of ONO-5334 (EC50) for sCTX inhibition ([1]; plasma concentration): 2.07 ng/mL
- Plasma ONO-5334 concentration (Mean ± SD) ([2]; 50 mg BID): 2.51 ± 1.60 ng/mL
- Plasma ONO-5334 concentration (Mean ± SD) ([2]; 100 mg QD): 4.51 ± 3.26 ng/mL
- Plasma ONO-5334 concentration (Mean ± SD) ([2]; 300 mg QD): 14.4 ± 10.6 ng/mL
- effect on BMD ([3]; 50 mg BID and 300 mg QD): increased BMD at all measured sites
- efficacy for increasing BMD compared to 50 mg BID and 300 mg QD ([3]; 100 mg QD): less efficacy
- safety [4]: no safety concerns
- Plasma ONO-5334 concentration (Mean ± SD) ([5]; 50 mg BID): 1.82 ± 0.33 ng/mL
- Plasma ONO-5334 concentration (Mean ± SD) ([5]; 100 mg QD): 2.74 ± 0.99 ng/mL
- Plasma ONO-5334 concentration (Mean ± SD) ([5]; 300 mg QD): 14.5 ± 6.33 ng/mL
- solubility [6]: high
- maximum BMD increase (100% Emax for 24 h) calculated by linear regression ([7]; lumbar spine): 4.85%
- maximum BMD increase (100% Emax for 24 h) calculated by linear regression ([7]; total hip): 3.05%
- Cmax relative to the concentration required for 99% Emax ([8]; 50 mg BID): 4 times
- Cmax relative to the concentration required for 99% Emax ([8]; 100 mg QD): 14 times
- Cmax relative to the concentration required for 99% Emax ([8]; 300 mg QD): 56 times
- PK parameters, Cmax and AUC, postprandial administration compared with a fasted state [9]: do not differ significantly
- time for trough plasma ONO-5334 level to reach steady state ([9]; repeated administration, after the first administration, earlier phase I studies): 2 days
